Patent US10731187B2, “Recombinant strain producing O-aminobenzoate and fermentative production of aniline from renewable resources via 2-aminobenzoic acid” (Covestro Deutschland AG, priority 2014, dated 2020)

Experiments:
[1] = cited from earlier work
[2] = tested on: P. putida; assay: Shake flask growth (OD600) with supplementation of toxic substances; format: cell-based, Pseudomonas putida KT2440; details: after octanol addition, pH 7, shake flask
Description: (§1) Several strains commonly used industrial biotechnology were investigated regarding their natural tolerance towards oAB and to organic solvents in question for later product extraction (e.g. 1-dodecanol or octanol). Furthermore, the influence of the used pH value was investigated. It was known from previous experiments that at least for E. coli the toxicity of aromatic compounds depends strongly on the pH value, probably because protonated acids can much more efficiently penetrate the cell membrane and accordingly their toxicity rises severely. The extraction of oAB in an organic phase is supposed to work best at low pH values, close to the isoelectric point of oAB. The most relevant host strains considered were: Escherichia coli K12, Corynebacterium glutamicum DSM 20300 (=ATCC 13032), Pseudomonas putida KT2440, Bacillus subtilis subsp. 168, Saccharomyces cerevisiae DSM 70449, and Pichia pastoris X33 (DSM 70382).
(§2) To investigate the chosen strains towards the mentioned characteristics shake flasks and small scale fermentation experiments were performed and the organisms were supplemented with the toxic substances (aminobenzoates, solvents) at differed concentrations, different pH values, and the behaviour of the strains was studied. […]

[3] = tested on: all organisms; assay: Toxicity of the extraction solvent octanol, shake flask growth; format: cell-based; details: 0.1 g/L and 3 g/L octanol
Description: as §1, §2

[4] = molecular target: T1, E. coli TrpEG (anthranilate synthase) variant TrpEGS40R, mutation S40R (SEQ ID NO: 52; SEQ ID No. 50-51) (Escherichia coli, UniProt P00895); assay: Anthranilate synthase activity in cell lysate of C. glutamicum ΔtrpD/pEKEx2-trpEG^S40R (KM and vmax); format: biochemical; details: raw extract (cell lysate), 25 °C, 20 mM L-glutamine, 10 mM MgCl2
T1 construct: S40R lies in TrpE
Description: In more specific embodiments of the recombinant microbial host cell of invention, the Corynebacterium glutamicum microbial host cell, preferably Corynebacterium glutamicum ATCC 13032, can further overexpress one or more of the genes selected from the group consisting of galP (SEQ ID NO: 30), iolT2 (SEQ ID NO: 31), ppgk (SEQ ID NO: 32), pps (SEQ ID NO: 33-35), ppk (SEQ ID NO: 36), zwfl (SEQ ID NO: 37), opcA (SEQ ID NO: 38-39), tktCg (SEQ ID NO: 40), tktEc (SEQ ID NO: 41), talCg (SEQ ID NO: 42), tame (SEQ ID NO: 43), a gene encoding TrpEGS38F (trpEG^S38F, SEQ ID NO: 50), a gene encoding TrpEGS38R (trpEG^S38R, SEQ ID NO: 51), a gene encoding TrpEGS40R (trpEG^S40R, SEQ ID NO: 52), a gene encoding TrpEGS40F (trpEG^S40F, SEQ ID NO: 53), the gene encoding AroGD146N (aroG^D146N, SEQ ID NO: 55), aroL of Escherichia coli LJ110 (SEQ ID NO: 93), aroK (SEQ ID NO: 94), glnA (SEQ ID NO: 95), and qsuA (SEQ ID NO: 96). […]

[5] = tested on: Corynebacterium glutamicum; assay: Growth (OD600) in shake flask cultures supplemented with toxic substances; format: cell-based, Corynebacterium glutamicum DSM 20300 (=ATCC 13032); details: 3 g/L, pH 7 (MOPS), 25 h
Description: as §1, §2

[6] = tested on: E. coli; assay: Shake flask growth (OD600) with supplementation of toxic substances; format: cell-based, Escherichia coli K12; details: 3 g/L pAB, pH 7, shake flask
Description: as §1, §2

CCCCCCCCCCCCO [1-dodecanol]
miscibility in water ([1]; 1-dodecanol): 0.004 g/L

CCCCCCCCO [octanol]
growth (OD600) [2]: minor growth activity | growth (OD600) [3]: unable to grow | solubility in water ([1]; octanol): about 0.1 g/L

C=C(O[C@@H]1C=C(C(=O)O)C=C[C@H]1O)C(=O)O [chorismate]
Vmax [4]: 317.9 mU/mg

Nc1ccccc1C(=O)O [oAB, o-aminobenzoate]
growth inhibition [5]: growth was not inhibited

Nc1ccc(C(=O)O)cc1 [pAB, 4-aminobenzoate, reference compound]
growth (OD600) [6]: not inhibited
